Activity calls are given as the source filed them.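 Rule for the calls: active = maximal percent inhibition of the deubiquitinase OTUD3 of at least 30% across the tested doses; inactive = the rest.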
These compounds were tested against OTU domain-containing protein 3 (Homo sapiens) (UniProt Q5T2D3) (assay: Validation of screening hits, potency titration, in vitro enzymatic, OTU domain-containing protein 3 DUB inhibitors (AID 1645868)). Conditions: purified OTUD3, ubiquitin-rhodamine cleavage fluorescence, 2 h.
OTU domain-containing protein 3 (Homo sapiens), sequence (Q5T2D3 whole entry, looked up, the tested form may be a part): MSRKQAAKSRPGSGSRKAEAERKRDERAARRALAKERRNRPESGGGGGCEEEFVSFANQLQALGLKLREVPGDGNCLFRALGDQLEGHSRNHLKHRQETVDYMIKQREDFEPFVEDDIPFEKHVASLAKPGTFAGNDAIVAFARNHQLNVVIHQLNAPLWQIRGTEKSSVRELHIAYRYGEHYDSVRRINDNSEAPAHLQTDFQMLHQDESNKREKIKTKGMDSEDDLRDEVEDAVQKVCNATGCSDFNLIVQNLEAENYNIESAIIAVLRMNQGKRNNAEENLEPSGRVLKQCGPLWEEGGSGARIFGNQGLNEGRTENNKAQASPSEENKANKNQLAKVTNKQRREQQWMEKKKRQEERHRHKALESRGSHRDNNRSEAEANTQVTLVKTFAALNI

IC50 | SMILES
> 50 µM (inactive) | O=C(OCc1ccc(Br)cc1)c1ccc2ccccc2n1
29.2 µM | COc1ccc(OC)c(CCNC(=O)CCC2=NS(=O)(=O)c3ccc(C(F)(F)F)cc3N2)c1
> 50 µM (inactive) | COc1ccc(-c2nc3n(n2)C(c2cccc(O)c2)C2=C(CCCC2=O)N3)cc1 (stereo not drawn)
> 50 µM (inactive) | CCN(CC)C(=O)CN1CCCC(c2ncncc2-c2cc(C)no2)C1 (stereo not drawn)
> 50 µM (inactive) | O=C(CN1C(=O)COc2ccc(Cl)cc21)Nc1cccc2ncccc12
> 50 µM (inactive) | CSc1ccc(CNCc2c(C(=O)O)n(Cc3ccccc3)c3cc(C)ccc23)cc1
> 50 µM (inactive) | Cc1ccc2nc(CCc3ccc(NS(=O)(=O)c4cccc(Cl)c4C)cc3)[nH]c2c1
> 50 µM (inactive) | Clc1ccc(C[n+]2cc(-c3ccc(Cl)cc3)n3c2CCC3)cc1
> 50 µM (inactive) | O=C(NC1CCN(Cc2ccccc2)CC1)c1[nH]nc2c1CCc1ccccc1-2
> 50 µM (inactive) | Cc1cnc2nc3c(cc2c1)CN(S(=O)(=O)c1cc(F)ccc1C)CC3
> 50 µM (inactive) | Cc1ccc2c(c1)[C@]1(C(=O)N2)[C@@H]2C(=O)N(c3cccc(C(F)(F)F)c3)C(=O)[C@@H]2C2CCCN21 (stereo partly drawn)
> 50 µM (inactive) | COc1cc2c(=O)n(CCC(=O)NCc3ccco3)c(=O)n(CC(=O)Nc3c(C)cccc3C)c2cc1OC
> 50 µM (inactive) | O=C(NCc1ccncc1)C1CCN(c2cncnc2N2CCCCC2)CC1
23.4 µM | CCC(C)c1ccc(O[C@@H]2O[C@@H]3COC(c4ccccc4)O[C@H]3[C@H](O)[C@H]2NC(C)=O)cc1 (stereo partly drawn)
22.4 µM | COc1ccc(N(CC(=O)Nc2cccc(F)c2)S(=O)(=O)c2ccc(OC)c(OC)c2)cc1
> 50 µM (inactive) | CN(CCCNC(=O)c1cccc2c1SCCC2=O)c1ccccc1
> 50 µM (inactive) | COc1ccc(/C=C\c2nccc3c2[nH]c2ccccc23)cc1
> 50 µM (inactive) | Cc1ccc(NC(=O)C2CCN(c3cncnc3N3CCCC3)CC2)cc1
19.7 µM | CCCCCC(=O)N1c2ccccc2NC2=C(C(=O)CC(c3ccc(C(C)(C)C)cc3)C2)C1c1ccncc1 (stereo not drawn)

IC50 | SMILES
> 50 µM (inactive) | C/C=C(\Cl)C1=CC(=O)[C@]23C[C@H]2[C@@]2(C)CO[C@@]1(O)[C@@]3(O)O2
> 50 µM (inactive) | O=C(/C=C/c1c(F)cccc1Cl)N1CCc2ccccc2C1
27.6 µM | CCc1cccc(CC)c1NC(=O)COC(=O)c1cc2cccc(OC)c2oc1=O
18 µM | CCn1cc(-c2nc(-c3ccccc3)no2)c(=O)c2cc(F)ccc21
> 50 µM (inactive) | CC1OC(CC(=O)O)CC23OC12C(=O)c1c(O)cccc1C3=O (stereo not drawn)
24.3 µM | Cc1nn(-c2ccc([N+](=O)[O-])cc2)c(C)c1-c1nc2ccccc2[nH]1
> 50 µM (inactive) | Cc1cc(-c2cnc(N(C)C)nc2-c2ccc(CNC(=O)Cc3ccc(F)cc3)cc2)on1
> 50 µM (inactive) | Cn1c(=O)c2c(nc3n(-c4ccccc4F)c(-c4ccccc4)cn23)n(C)c1=O
> 50 µM (inactive) | N#Cc1cc2c(nc1SCC(=O)NCc1ccccc1)CCCC2
23.3 µM | Cc1cc(=O)n(CC(=O)Nc2ccccc2C)c(Nc2ccc(F)cc2)n1
> 50 µM (inactive) | Cn1c(=O)c2c(ncn2CC(=O)NC2CCCc3ccccc32)n(C)c1=O (stereo not drawn)
26.5 µM | Cc1ccc(-n2cc(C(=O)NCc3cccnc3)nn2)cc1C
32.8 µM | O=C(Nc1cc(Cl)cc(Cl)c1)c1csnn1
> 50 µM (inactive) | CN(CCc1ccccc1)c1nccc(N2CCN(C(=O)c3csc(-c4cccnc4)n3)CC2)n1
> 50 µM (inactive) | CN(C)C1CCN(C(=O)c2cc(-c3ccn(-c4ccccc4)n3)n3ccccc23)CC1
> 50 µM (inactive) | Cc1ccc2nc(CNc3ccc(F)cc3C)cc(=O)n2c1
> 50 µM (inactive) | O=C(/C=C/c1cnc2ccccc2c1)NCc1ccccc1
> 50 µM (inactive) | O=C(Nc1ccccc1)c1cn2c3c(cccc3c1=O)CC2
19.7 µM | Nc1c(C(=O)NCc2ccc3c(c2)OCO3)nnn1Cc1ccc(Br)cc1F
